Results as given in patent US11013780B2, “Methods of treating female infertility” (Myovant Sciences GmbH, priority 2016, dated 2021).
Where two headings read alike, the source gives them in different places. Where a SMILES comes first, the peptide text is derived from it. [ ]: non-standard residue; d: D form. Arg(Me) = CNC(=N)NCCC[C@H](N)C(=O)O; Hyp = O=C(O)[C@@H]1C[C@@H](O)CN1; azaGly = NNC(=O)O

Test: Single dose PK, phase 1, healthy European men
Type: in vivo, human
Conditions: for Ae(0-t) (urine): geometric mean (% CV); for Tmax / half-life / CL/F / AUC(0-inf) / AUC(0-t) / Cmax / Vd/F: male, human, plasma; for CL/F / AUC(0-inf) / AUC(0-t) / Cmax / Vd/F: geometric mean; for Vd/F: read-out: Vz/F
Method: The study was conducted in France.
Eighty-two healthy European male subjects aged 50 to 76 years were enrolled into nine cohorts. 81/82 subjects (98.8%) were white and 1/82 subject (1.2%) was black/African American. Subjects enrolled in the first six cohorts received 0.001, 0.003, 0.01, 0.03, 0.1, or 0.3 mg of API-MA or placebo by single SC bolus. In the 0.3 mg cohort, 6 subjects received API-MA and two received placebo. In the remaining cohorts, 7 subjects received API-MA and three received placebo. Subjects enrolled in the seventh, eighth, and ninth cohorts received 1, 3, or 6 mg of API-MA or placebo by single 2-hour SC infusion. In these cohorts, 6 subjects received API-MA and two received placebo.
To measure urinary excretion of API-MA, urine specimens were collected at the following nominal times: from 12 hours prior to dosing until dosing and 0 to 6, 6 to 12, 12 to 24, 24 to 48 and 48 to 72 hours postdose.
To measure urinary excretion of API-MA, urine specimens were collected at the following nominal times: from 12 hours prior to dosing until dosing and 0 to 6, 6 to 12, 12 to 24, 24 to 48, and 48 to 72 hours after the start of the infusion.

## CC(=O)O.CNC(=N)NCCC[C@H](NC(=O)[C@H](CC(C)C)NC(=O)NNC(=O)[C@H](Cc1ccccc1)NC(=O)[C@@H](NC(=O)[C@H](CC(N)=O)NC(=O)[C@@H]1C[C@@H](O)CN1C(=O)[C@@H](Cc1ccc(O)cc1)NC(C)=O)[C@@H](C)O)C(=O)N[C@@H](Cc1c[nH]c2ccccc12)C(N)=O [API-MA, 2-(N-Acetyl-D-tyrosyl-trans-4-hydroxy-L-prolyl-Lasparaginyl-L-threonyl-L-phenylalanyl)-hydrazinocarbonyl-L-leucyl-Nω-methyl-L-arginyl-L-tryptophanamide monoacetate] (Ac-[dY][Hyp]NTF[azaGly]L[Arg(Me)]W-NH2)
2-hour INF 1 mg
  Ae(0-t) (urine): 29971.789 (27.97) ng
2-hour INF 3 mg
  Ae(0-t) (urine): 118170.544 (41.46) ng
2-hour INF 6 mg
  Ae(0-t) (urine): 322822.342 (10.34) ng
SC bolus, read-out: Median Tmax, range over cohorts
  Tmax: 0.5 to 0.75 h
sc, 0.001 mg, single SC 0.001 mg, read-out: T½ (median) (converted)
  half-life: 1.8 h
sc, 0.003 mg, single SC 0.003 mg, read-out: T½ (median) (converted)
  half-life: 1.43 h
sc, 0.01 mg, single SC 0.01 mg, read-out: T½ (median) (converted)
  half-life: 2.17 h
sc, 0.03 mg, single SC 0.03 mg, read-out: T½ (median) (converted)
  half-life: 2.61 h
sc, 0.1 mg, single SC 0.1 mg, read-out: T½ (median) (converted)
  half-life: 3.08 h
sc, 0.3 mg, single SC 0.3 mg, read-out: T½ (median) (converted)
  half-life: 3.45 h
sc, 2-hour INF 1 mg
  CL/F: 380 mL/min
sc, 2-hour INF 3 mg
  CL/F: 353 mL/min
sc, 2-hour INF 6 mg
  CL/F: 315 mL/min
Single SC 0.001 mg
  AUC(0-inf): 0.0475 ng·h/mL
  AUC(0-t): 0.0267 ng·h/mL
  CL/F: 351 mL/min
  Cmax: 0.0133 ng/mL
  Vd/F: 63.9 L
Single SC 0.001 mg, read-out: Tmax (median)
  Tmax: 0.5 h
Single SC 0.003 mg
  AUC(0-inf): 0.122 ng·h/mL
  AUC(0-t): 0.101 ng·h/mL
  CL/F: 409 mL/min
  Cmax: 0.0424 ng/mL
  Vd/F: 55.9 L
Single SC 0.003 mg, read-out: Tmax (median)
  Tmax: 0.75 h
Single SC 0.01 mg
  AUC(0-inf): 0.371 ng·h/mL
  AUC(0-t): 0.345 ng·h/mL
  CL/F: 449 mL/min
  Cmax: 0.14 ng/mL
  Vd/F: 85.6 L
Single SC 0.01 mg, read-out: Tmax (median)
  Tmax: 0.5 h
Single SC 0.03 mg
  AUC(0-inf): 1.11 ng·h/mL
  AUC(0-t): 1.07 ng·h/mL
  CL/F: 451 mL/min
  Cmax: 0.34 ng/mL
  Vd/F: 96 L
Single SC 0.03 mg, read-out: Tmax (median)
  Tmax: 0.5 h
Single SC 0.1 mg
  AUC(0-inf): 3.94 ng·h/mL
  AUC(0-t): 3.89 ng·h/mL
  CL/F: 423 mL/min
  Cmax: 1.38 ng/mL
  Vd/F: 108 L
Single SC 0.1 mg, read-out: Tmax (median)
  Tmax: 0.5 h
Single SC 0.3 mg
  AUC(0-inf): 13.2 ng·h/mL
  AUC(0-t): 13.2 ng·h/mL
  CL/F: 378 mL/min
  Cmax: 4.35 ng/mL
  Vd/F: 114 L
Single SC 0.3 mg, read-out: Tmax (median)
  Tmax: 0.625 h
subcutaneous, 1 mg, 2-hour INF 1 mg, read-out: T1/2 (median) (converted)
  half-life: 3.64 h
